Data taken from patent US9340549B2, “Oxazolidinone compounds and derivatives thereof” (priority 2012, dated 2016).
Like-named read-outs stand apart in the source and are kept apart here.

Legend:
[1] = biological target: 6×HIS-tankyrase 1 (1091-1325) (Homo sapiens (Human), UniProt O95271); experiment: biochemical; type: biochemical
[2] = tested on: total β-catenin in SW480 colorectal cells; experiment: cells; type: cell-based; conditions: Homo sapiens
Protocol: Total β-Catenin MSD 96-Well Plate Assay for SW480 Cells
SW480 colorectal cells were seeded at a density of 10,000/well in CellBIND 96-well plates (Corning catalog no. 3300) in 60 μL of normal growth medium (MEM alpha supplemented with 10% heat inactivated FBS, GlutaMAX, pyruvate, and 10 mM HEPES).
A 10-point, 3-fold dilution series for each TNKS inhibitor was constructed in a 96-well “stock” plate. […] The plates were incubated at 37° C. for 40 to 48 hours. The media was removed from the CellBIND plate via plate inversion and gentle shaking and the inverted plate was touched to a paper towel and immediately placed on ice. […] Plates containing cell lysates were sealed and shaken for one hour at 4° C. and then quickly frozen in a −80° C. for approximately 15 to 30 minutes followed by gradually thawing at 4° C. Finally, lysate containing plates were centrifuged @1000×g (2073 rpm) for 10 minutes at 4° C.
The sealed MSD plate was incubated overnight in a cold room with gentle shaking. The MSD plate was then blocked with 150 μL of Blocker “A” per well and incubated overnight at 4° C. with vigorous shaking. The blocked MSD plate was washed 4 times with 150 μL/well TBS-T wash buffer (150 mM NaCl, 50 mM Tris, pH 7.5, 0.02% Tween-20). Cell lysates (75 μL) were transferred to prepared MSD plates and incubated at 4° C. ON with gentle shaking. […] The detection antibody was incubated for 1 hour at room temperature with vigorous shaking after which plates were washed 3 times with 150 μL/well TBS-T wash buffer. Plates were processed for analysis by the addition of 150 μL/well MSD Read 4× Buffer T with surfactant (catalog no. R92TC-2; diluted 1:3 in deionized water) and were read on the SECTOR Imager 6000.

Axin2 in SW480 cells = experiment: cells; type: cell-based; conditions: read-out: Axin2 384 IF EC50 IP
Protocol: Using a VPrep, 10 μL of compound/controls was transferred from the compound plate to 60 μL in the cell plate (final 0.5% DMSO, 70 μL). The mixture was incubated for 24 hours at 37° C. at 5% CO2.
The extra media was tapped out. 50 μL of 4% paraformaldehyde (Fisher, AA433689M), 0.1% Triton (Sigma, X100-100 ML) in PBS were added, and the mixture was incubated for 15 minutes at room temperature. […] The extra media was tapped out and to this was added 50 μL of buffer containing Axin2 Antibody (Sigma, SAB1100677-200 µL) at 1:10000 in PBS, 0.1% Tween-20, 1% Normal Goat Serum. The mixture was incubated for 2 hours at room temperature or overnight at 4° C. The cells were then washed twice with PBS, 0.1% Tween-20, and 1% Normal Goat Serum. […] The mixture was then incubated for 30 minutes at room temperature. The cells were then washed twice with PBS, 0.1% Tween-20, and 1% Normal Goat Serum. 50-100 μL PBS was added, and the mixture was covered with a plate seal (Fisher, NC9425162). An ArrayScan (a variation of the compartmental analysis protocol was optimized) was used to scan the plates, and data was analyzed using MEAN_RingSpotAvgIntenCh2). The Axin2 accumulation POC was calculated, and the EC50 was determined using Genedata Screener software to report Axin2 activity.

[3] = […] enzyme, 400 nM NAD, 60 minutes at room temperature, read-out: TNKS1 IP IC50
[4] = SW480, read-out: SW480-Total β-Catenin IC50 IP
[5] = Homo sapiens, SW480, 24 h, SW480 cells, 24 hours
[6] = SW480 cells, 40 to 48 hours, top concentration 10 μM, read-out: SW480-Total β-Catenin IC50 IP
[7] = 0.25 nM enzyme, 400 nM NAD, 60 minutes at room temperature, read-out: TNKS1 IP IC50
[8] = Homo sapiens, SW480 cells, 24 hours

6×HIS-tankyrase 1 (1091-1325), sequence (O95271 1091-1325): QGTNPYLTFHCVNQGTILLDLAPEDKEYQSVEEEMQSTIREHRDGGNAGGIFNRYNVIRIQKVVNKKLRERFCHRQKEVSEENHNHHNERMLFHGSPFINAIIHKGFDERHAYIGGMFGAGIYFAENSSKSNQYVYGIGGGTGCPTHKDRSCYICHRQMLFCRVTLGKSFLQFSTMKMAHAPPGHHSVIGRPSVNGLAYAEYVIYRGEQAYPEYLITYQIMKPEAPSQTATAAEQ

Row | Compound | IC50 [1, 3] [nM] | EC50 (Axin2 in SW480 cells; [5]) [nM] | IC50 [2, 6] [nM] | further results
1 | CC1(C)OC(=O)N(c2ccc(C(=O)Nc3cccc4cccnc34)cc2)[C@H]1c1ccncc1 [Example 126, (S)-4-(5,5-dimethyl-2-oxo-4-(pyridin-4-yl)oxazolidin-3-yl)-N-(quinolin-8-yl)benzamide] | 272 | 4620 | – | IC50 [2, 4]: 761 nM
2 | CC1(C)OC(=O)N([C@H]2CC[C@H](NC(=O)n3ccc4cccnc43)CC2)[C@H]1c1ccccc1 [Example 58, N-(trans-4-((4S)-5,5-dimethyl-2-oxo-4-phenyl-1,3-oxazolidin-3-yl)cyclohexyl)-1H-pyrrolo[2,3-b]pyridine-1-carboxamide] | 7.46 | 828 | 979 | –
3 | CC1(C)OC(=O)N(c2ccc(-n3cc(-c4ccccc4)[nH]c3=O)cc2)[C@H]1c1ccccc1 [Example 80, (4S)-5,5-dimethyl-3-(4-(2-oxo-4-phenyl-2,3-dihydro-1H-imidazol-1-yl)phenyl)-4-phenyl-1,3-oxazolidin-2-one] | 3080 | > 12500 | 1360 | EC50 (Axin2 in SW480 cells; SW480 cells, 24 hours): > 25000 nM
4 | CC1(C)OC(=O)N([C@H]2CC[C@H](c3cnc(N)c(C4=NCCCN4)c3)CC2)[C@H]1c1ccccc1 [Example 77, (S)-3-((1r,4S)-4-(6-amino-5-(1,4,5,6-tetrahydropyrimidin-2-yl)pyridin-3-yl)cyclohexyl)-5,5-dimethyl-4-phenyloxazolidin-2-one] | 1650 | > 25000 | > 10000 | –
5 | CC1(c2ccccc2)CN([C@H]2CC[C@@H](n3c(=O)[nH]c4cc(C#N)ccc43)CC2)C(=O)O1 (stereo partly drawn) [Example 92, 1-((1R,4r)-4-((R+S)-5-methyl-2-oxo-5-phenyloxazolidin-3-yl)cyclohexyl)-2-oxo-2,3-dihydro-1H-benzo[d]imidazole-5-carbonitrile] | 4.9 | 183 | 177 | –
6 | CC1(C)OC(=O)N([C@H]2CC[C@H](n3c(=O)oc4cccnc43)CC2)[C@H]1c1ccccc1 [Example 49, 3-(trans-4-((4S)-5,5-dimethyl-2-oxo-4-phenyl-1,3-oxazolidin-3-yl)cyclohexyl)[1,3]oxazolo[4,5-b]pyridin-2(3H)-one] | – | > 25000 | 949 | IC50 [1]: 3460 nM
7 | CC1(C)OC(=O)N([C@H]2CC[C@H](c3cc(-c4ncccn4)c[nH]c3=O)CC2)C1c1ccccc1 (mixture of isomers) [Example 7, (+/−)-3-(trans-4-((4S/R)-5,5-Dimethyl-2-oxo-4-phenyl-1,3-oxazolidin-3-yl)cyclohexyl)-5-(2-pyrimidinyl)-2(1H)-pyridinone] | – | – | – | IC50 [1, 7]: 31.8 nM; IC50 [2, 4]: 695 nM; EC50 (Axin2 in SW480 cells; Homo sapiens, SW480, 24 h): 1460 nM
8 | CC1(C)OC(=O)N(c2ccc(-c3nnc4cc(C#N)ccn34)cc2)[C@H]1c1ccccc1 [Example 67, (S)-3-(4-(5,5-dimethyl-2-oxo-4-phenyloxazolidin-3-yl)phenyl)-[1,2,4]triazolo[4,3-a]pyridine-7-carbonitrile] | 5230 | > 25000 | > 10000 | –
9 | COc1cccc(C2N(c3ccc(C(=O)Nc4cccc5cccnc45)cc3)C(=O)OC2(C)C)c1 (racemic) [Example 105, (+/−)-(R/S)-4-(4-(3-methoxyphenyl)-5,5-dimethyl-2-oxooxazolidin-3-yl)-N-(quinolin-8-yl)benzamide] | – | 8930 | 3250 | IC50 [1, 7]: 152 nM
10 | O=C(Nc1cccc2cccnc12)c1ccc(N2C(=O)OC3(CCC3)C2c2ccccc2)cc1 (stereo not shown) [Example 44, (R+S) 4-(6-oxo-8-phenyl-5-oxa-7-azaspiro[3.4]octan-7-yl)-N-(quinolin-8-yl)benzamide] | 822 | – | 8800 | EC50 (Axin2 in SW480 cells; [8]): > 25000 nM
11 | CC1(C)OC(=O)N([C@@H]2CC=C(c3cc(-c4ncccn4)c[nH]c3=O)CC2)[C@H]1c1ccccc1 (single isomer, unassigned) [Example 5] | 24.1 | 816 | 447 | –
12 | CC1(C)OC(=O)N(c2ccc(N3C(=O)Cc4ccccc43)cc2)[C@H]1c1ccccc1 [Example 18, (S)-5,5-dimethyl-3-(4-(2-oxoindolin-1-yl)phenyl)-4-phenyloxazolidin-2-one] | 973 | > 25000 | > 10000 | –
13 | CC1(C)OC(=O)N(c2ccc(-c3cc(-c4ncco4)c[nH]c3=O)cc2)[C@H]1c1ccccc1 [Example 116, (S)-5,5-dimethyl-3-(4-(5-(oxazol-2-yl)-2-oxo-1,2-dihydropyridin-3-yl)phenyl)-4-phenyloxazolidin-2-one] | – | > 6250 | 906 | –
14 | CC1(C)OC(=O)N([C@H]2CC[C@H](n3c(=O)[nH]c4cncnc43)CC2)[C@H]1c1ccccc1 [Example 50, (S)-5,5-dimethyl-3-((1r,4S)-4-(8-oxo-7H-purin-9(8H)-yl)cyclohexyl)-4-phenyloxazolidin-2-one] | – | 391 | 292 | –
15 | CC1(C)OC(=O)N([C@H]2CC[C@H](c3cnc(N)c(-c4ncccn4)c3)CC2)[C@H]1c1ccccc1 (racemic) [Example 73, 3-((1r,4r)-4-(6-amino-5-(pyrimidin-2-yl)pyridin-3-yl)cyclohexyl)-5,5-dimethyl-4-phenyloxazolidin-2-one] | – | – | – | IC50 [2, 4]: 95.2 nM; EC50 (Axin2 in SW480 cells; Homo sapiens, SW480, 24 h): 202 nM
16 | CC1(C)OC(=O)N([C@H]2CC[C@H](n3c(=O)[nH]c4c(C#N)cccc43)CC2)[C@H]1c1ccccc1 [Example 51, 1-((1S,4r)-4-((S)-5,5-dimethyl-2-oxo-4-phenyloxazolidin-3-yl)cyclohexyl)-2-oxo-2,3-dihydro-1H-benzo[d]imidazole-4-carbonitrile] | – | – | 274 | EC50 (Axin2 in SW480 cells; [8]): 454 nM
17 | CC1(C)OC(=O)N([C@H]2CC[C@H](n3c(=O)[nH]c4cnccc43)CC2)[C@@H]1c1ccccc1 [Example 24, (R)-5,5-dimethyl-3-((1 r,4R)-4-(2-oxo-2,3-dihydro-1H-imidazo[4,5-c]pyridin-1-yl)cyclohexyl)-4-phenyloxazolidin-2-one] | – | 4640 | 1480 | –
18 | CC1(C)OC(=O)N([C@H]2CC[C@H](n3c(=O)[nH]c4cc(C#N)cnc43)CC2)[C@H]1c1ccccc1 [Example 57, 3-((1S,4r)-4-((S)-5,5-dimethyl-2-oxo-4-phenyloxazolidin-3-yl)cyclohexyl)-2-oxo-2,3-dihydro-1H-imidazo[4,5-b]pyridine-6-carbonitrile] | – | – | 172 | EC50 (Axin2 in SW480 cells; [8]): 795 nM
19 | CC1(C)OC(=O)N([C@H]2CC[C@H](n3c(=O)[nH]c4ncccc43)CC2)[C@H]1c1ccccc1 [Example 30, (S)-5,5-dimethyl-3-((1r,4S)-4-(2-oxo-2,3-dihydro-1H-imidazo[4,5-b]pyridin-1-yl)cyclohexyl)-4-phenyloxazolidin-2-one] | – | 1980 | 1120 | –
20 | CC1(C)OC(=O)N([C@H]2CC[C@H](n3c(=O)[nH]c4c(F)c(C#N)ccc43)CC2)[C@H]1c1ccccc1 [Example 60, 1-((1S,4r)-4-((S)-5,5-dimethyl-2-oxo-4-phenyloxazolidin-3-yl)cyclohexyl)-4-fluoro-2-oxo-2,3-dihydro-1H-benzo[d]imidazole-5-carbonitrile] | – | – | 75.4 | EC50 (Axin2 in SW480 cells; [8]): 61.4 nM
21 | CC1(C)OC(=O)N([C@H]2CC[C@H](n3c(=O)[nH]c4ncccc43)CC2)[C@@H]1c1ccccc1 [Example 31, (R)-5,5-dimethyl-3-((1r,4R)-4-(2-oxo-2,3-dihydro-1H-imidazo[4,5-b]pyridin-1-yl)cyclohexyl)-4-phenyloxazolidin-2-one] | – | 17500 | 2660 | –
